# Patent publication US12377069B2, “Compounds, compositions, methods of using, and methods for preparing compounds” (UNIVERSITY OF LOUISVILLE RESEARCH FOUNDATION, INC., priority 2018, dated 2025)
# How the values were obtained:
# [1] = system: colon cancer cell line (SW480); assay: Proliferation assay with 5FU; settings: Homo sapiens
# Cyp1A1 [2] = assay: Cyp1A1 enzyme activity in colon and liver microsomes of treated mice; type: in vivo, mouse; settings: 1 week; for Cyp1A1 activity in liver compared to oral UroA/UAS03: i.p. daily
# Procedure: Measurements of Cyp1A1 enzyme activity (Ex vivo): Mice were treated with Vehicle or UroA or UAS03, BNF or FICZ daily for one week at indicated concentration either through oral or i.p. route. After one week, mice were euthanized and the colon and liver tissues were dissected. Microsomes from these tissues were prepared using the following procedure (SINGH et al., (2013) “Evaluation of memory enhancing clinically available standardized extract of Bacopa monniera on P-glycoprotein and cytochrome P450 3A in Sprague-Dawley rats” PloS one, Vol. 8, Article e72517). For hepatic microsomes, liver was first perfused with 0.9% sodium chloride solution and excised out. Adhering blood and saline was removed by blotting on tissue paper and tissue was homogenized in tissue homogenization buffer (50 mM Tris-HCl, pH 7.4 with 250 mM sucrose). Homogenate was centrifuged at 10,000×g for 30 minutes at 4° C. supernatant obtained was further centrifuged at 105,000×g for 60 minutes at 4° C. The pellet was washed with homogenization buffer and centrifuged again at 105,000×g for 60 minutes at 4° C. The pellet was suspended in homogenization buffer and used for protein and CYP assay. For intestinal microsome preparation, intestine was removed and washed with 0.9% sodium chloride. The intestine was longitudinally cut open to expose mucosal layer and mucosa was scrapped with help of glass slide. The scraped tissue was collected in homogenization buffer (50 mM Tris-HCl buffer containing glycerol (20% v/v), protease inhibitor (1%) and heparin (3 U/ml)). This suspended mucosa was homogenized and centrifuged at 10,000×g for 20 minutes at 4° C. Supernatant obtained was further centrifuged at 105,000×g for 60 minutes at 4° C. The pellet was washed with buffer and centrifuged again at 105,000×g for 60 minutes at 4° C. The pellet was suspended homogenization buffer and used for protein and CYP enzymes assays.
# Ethoxyresorufin-O-deethylase (EROD) assay: The microsomal proteins (0.5 mg) were mixed with 200 μL Tris buffer (0.1 M, pH 7.4) containing ethoxyresorufin (0.01 mM). To start reaction, NADPH (0.1 mM) was added and incubated at 37° C. for 10 min. After 10 min, reaction was terminated by adding equal volume of acetonitrile and reaction mixture was centrifuged at 13000×g for 10 min at 4° C. Supernatant was used to determine resorufin by measuring fluorescence (Ex. 530 nm, Em. 580 nm). Pure resorufin (Sigma Aldrich) was used to generate standard curve.
# P450-Glo Cyp1A1 luminiscence assay: The above microsomes (20 μg) were used for P450-Glo Cyp1A1 luminiscence assays as per manufacturer's instructions.
# Cyp1A1 [3] = assay: Cyp1A1 expression and enzyme activity in vitro (P450-Glo, EROD); type: cell-based, human; settings: HT29, 24 h; P450-Glo and EROD
# Procedure: Measurment of Cyp1A1 enzyme activities in vitro. EROD assay: HT-29 cells (15,000 cells/well) treated with vehicle, UroA and UAS03 (24 hrs), were rinsed with HBSS buffer, and then fresh HBSS buffer was added along with 5 μM of 7-ethoxyresorufin. Cells were further incubated at 37° C. for 1 h. After the incubation time, fluorescence (Exc. 530 nm, Em. 580 nm) was measured and product (resorufin) formed was calculated from calibration standard and normalized with protein concentration.
# P450-Glo Cyp1A1 luminiscence assay: HT29 cells (25,000 cells/well) were plated in 48 well plate. Cell were then treated with UroA (0.1, 1, 10, 25 and 50 μM) or UAS03 (0.1, 1, 10, 25 and 50 μM) or FICZ (0.1, 1, 10, 25 and 50 nM) for 24 hrs. After treatment, cells were washed to remove any residual drugs, and fresh medium containing Cyp1A1 substrate (as per protocol provided with kit Cat. #V8751; Promega) for 3 hr. After incubation, 25 μl of culture medium was removed from each well and transferred to a 96-well white opaque plate and 25 μl of luciferin detection reagent was added to initiate the luminescence reaction and plate was incubated at room temperature for 20 min. After incubation, luminescence was recorded in luminometer. The data reported as fold change over vehicle treatment.
# [4] = system: mouse bone marrow derived macrophages (BMDMs); assay: LPS-induced IL-6 and TNF-α in BMDM; type: cell-based; settings: LPS 50 ng/mL, six hours; compared UroA
# Procedure: Measurements of IL-6 and TNF-α in BMDM: BMDM were plated in 96 (10,000 cells/well) and 12 wells (0.1×10^6 cells/well) plate for ELISA and RNA isolation. To evaluate the anti-inflammatory properties, BMDMs were stimulated with E. coli-derived lipopolysaccharides (LPS; 055:B5; Sigma) at 50 ng/mL concentration for six hours alone or in combination with UroA or UAS03 at indicated concentrations (0.01, 0.1, 1, 10, 25, 50 μM) in quadruplicates. For cytokine production via ELISA, the supernatant was collected and centrifuged at 10,000×g for 10 min at 4° C. to pellet down any cell and cytokines were quantified using IL-6 and TNF-α specific ELISA kit (Biolegend) following manufacturer's instruction.
# Screening for anti-inflammatory activities: Mouse bone marrow derived macrophages (BMDM) were plated in 96 wells plate for ELISA. To evaluate the anti-inflammatory properties, BMDMs were stimulated with E. coli-derived lipopolysaccharides (LPS; 055:B5; Sigma) at 50 ng/mL concentration for six hours alone or in combination with compounds at indicated concentrations in quadruplicates. For cytokine production via ELISA, the supernatant was collected and centrifuged at 12,000 rpm for 10 min at 4° C. to pellet down any cell and cytokines were quantified using IL-6 and TNF-α specific ELISA kit (Biolegend) following manufacturer's instruction. LPS induced IL-6 or TNF-α considered as 100%.
# AhR = AhR reporter (XRE-luciferase) assay; type: cell-based, human; settings: 6 h, over vehicle
# Procedure: AhR Reporter assay: AhR-reported assay was performed using AhR Reporter Assay system (Indio Biosciences). The AhR Reporter cells (expressing luciferase under AhR promoter) as well as positive control MeBio (AhR ligand) compound were provided in the kit. The cells were treated with Vehicle or UroA or UAS03 or ellagic acid or MeBio for 6 hr and luminoscence was measured according to manufacture's instructions.
# [5] = SW480, read-out: cell viability
# [6] = i.p., UroA/UAS03 5 mg/kg/day, FICZ 1 μg/mouse/day
compound,measurement,setting,value
"O=c1[nH]cc(F)c(=O)[nH]1 [5FU, 5-Fluoro-1H,3H-pyrimidine-2,4-dione, reference compound]",viability at 3.12 µM,[1]; [5],90%
same,viability at 25 µM,[1]; [5],63%
same,inhibition at 100 µM,"[1]; SW480, read-out: maximum inhibition of cancer cell growth",≤ 60%
"O=c1cc(-c2ccccc2)oc2ccc3ccccc3c12 [BNF, beta-naphthoflavone, reference compound]",Cyp1A1 activity in liver compared to oral UroA/UAS03,Cyp1A1 [2],more Cyp1A1 activity in liver
"O=Cc1c2c(cc3c1=Nc1ccccc1-3)=Nc1ccccc1-2 [FICZ, 6-Formylindolo[3,2-b]carbazole, reference compound]",Cyp1A1 enzyme activity in colon epithelial cells,Cyp1A1 [3],increased Cyp1A1 activity even at nano molar concentrations
same,Cyp1A1 activity in liver compared to oral UroA/UAS03,Cyp1A1 [2],more Cyp1A1 activity in liver
same,Cyp1A1 activity increase in colons,Cyp1A1 [2]; [6],~5 fold
same,Cyp1A1 enzyme activity induction in liver,Cyp1A1 [2]; [6],~30 fold
O=C1C(=O)c2cc(O)ccc2-c2ccc(O)cc21 [PKL4],"anti-inflammatory activities (LPS-induced IL-6 and TNF-α), analogue screening",[4],effective anti-inflammatory compounds
COc1ccc2c(c1)C(=O)C(=O)c1cc(OC)ccc1-2 [PKL 3],"anti-inflammatory activities (LPS-induced IL-6 and TNF-α), analogue screening",[4],effective anti-inflammatory compounds
O=C1/C(=N/C23CC4CC(CC(C4)C2)C3)c2cc(O)ccc2-c2ccc(O)cc21 [PKL 17],"anti-inflammatory activities (LPS-induced IL-6 and TNF-α), analogue screening",[4],effective anti-inflammatory compounds
"Clc1cc2c(cc1Cl)Oc1cc(Cl)c(Cl)cc1O2 [TCDD, 2,3,7,8-tetrachlorodibenzo-p-dioxin, reference compound]",Cyp1A1 enzyme activity in colon epithelial cells,Cyp1A1 [3],increased Cyp1A1 activity even at nano molar concentrations
MeBio,induction of luciferase activity (AhR activation),AhR,~15 fold
